The values below come from ChEMBL document CHEMBL1133530, “Classification of multidrug-resistance reversal agents using structure-based descriptors and linear discriminant analysis” (2000).

This assay is filed under the species Mus musculus. The assay is described as follows: Tested for the multidrug resistance reversal activity against P388 murine leukemia cell line, activity is expressed as RF(ED50 with no adriamycin (ADR)/ED50 with 200 nM ADR). It counts as functional.
On to `NCCc1ccccc1` [PHENETHYLAMINE], for which the RF was 1. For `CCCCc1oc2ccccc2c1C(=O)c1cc(I)c(OCCN(CC)CC)c(I)c1` [AMIODARONE], the RF was determined as 5.6. The same measure for `COc1ccc(CCNCC(O)COc2cccc(C)c2)cc1OC` (stereo not drawn) [BEVANTOLOL]: 50; for `COc1ccc(CCC2NCCc3cc(OC)c(OC)cc32)cc1` (stereo not drawn): 100. The same measure for `O=C(OCCN1CCN(CCOC(=O)C(c2ccccc2)c2ccccc2)CC1)C(c1ccccc1)c1ccccc1`: 300. Under `CCN(CC)CCOC1CCC2(C)C(=CCC3C4CCC(=O)C4(C)CCC32)C1` (stereo not drawn) stands 60.

On to `OCCN1CCN(CC/C=C2/c3ccccc3Sc3ccc(Cl)cc32)CC1` [ZUCLOPENTHIXOL], for which the RF is on record as 15. Under `COc1ccc(CCN(C)CCCC(C#N)(c2ccc(OC)c(OC)c2)C(C)C)cc1OC` (stereo not drawn) [VERAPAMIL] stands 100.
